These results are taken from publication PMC5961436, “PKA and PKC Modulators Affect Ion Channel Function and Internalization of Recombinant Alpha1 and Alpha1-Beta Glycine Receptors” (Frontiers in Molecular Neuroscience, 2018).

As usually defined, the EC50 is the concentration needed to bring the measured effect to its halfway point.

For one series, the system named is homomeric α1 GlyRs. Also on record: method as in Uchiyama et al., 1994. As to conditions: ref Uchiyama et al., 1994; cited from earlier work.
The next series deals with GlyR. Details: method as in Li and Yang, 2001. The conditions noted are these: ref Li and Yang, 2001; cited from earlier work.
The subject of another series is human homomeric α1 GlyRs. Kind of series: Whole-cell patch-clamp of glycine induced currents, modulators in the intracellular buffer, HEK293 cells expressing GlyR α1. Type of series: cell-based. As to conditions: for change of Imax at t = 10 min normalized to t = 0: 0.25 μM intracellular modulator, one-way ANOVA; for effect on EC50: 0.25 μM modulator, t = 0; for desensitization of glycine induced currents / effect on EC50 compared to control / Fraction of desensitizing cells / Imax: 0.5 μM modulator in intracellular buffer; for Fraction of desensitizing cells / Imax: mean ± SEM. On the procedure: (§1) HEK293 cells were grown in 10 cm tissue culture Petri dishes in Eagle minimal essential medium (Sigma-Aldrich Chemie GmbH, Munich, Germany) supplemented with 10% FBS (Invitrogen, Karlsruhe, Germany) and penicillin/streptomycin (Sigma-Aldrich Chemie GmbH, Munich, Germany) at 5% CO2 and 37°C in a water saturated atmosphere. For electrophysiological experiments, cells were plated on poly-L lysine treated glass coverslips in 6 cm dishes. Transfection was performed 1 day after cell passage using Gen-Carrier (Epoch Lifesciences, Sugarland, TX, USA): 1.3 μg of receptor DNA, 1.3 μg of green fluorescent protein DNA, and 2.6 μl GenCarrier were used, following the manufacturer’s instructions. Measurements were performed 2–4 days after transfection. HEK293 cells used for protein expression and internalization analysis were transfected using a modified calcium phosphate precipitation method. In brief, a mixture of plasmid DNA, CaCl2 (2.5M), 0.1× TE buffer and 2× HBS (50 mM HEPES, 12 mM glucose, 10 mM KCl, 280 mM NaCl, 1.5 mM Na2HPO4) was applied onto the cells for 6 h. A GlyR α1 to GlyR β ratio of 1:2 was used for co-expression. Transfection medium was replaced by fresh medium after 6 h. Immunocytochemical stainings were always done 24 h after transfection, biotinylation experiments were performed 48 h after transfection.
(§2) using a nonlinear algorithm in Microcal Origin. Here, Iglycine is the current amplitude at a given glycine concentration, Isat is the maximum current amplitude at saturating concentrations of glycine, EC50 is the glycine concentration at half-maximal current responses, and nHill is the Hill coefficient. Currents from each individual cell were normalized to the maximum response at saturating glycine concentrations. Significance of differences between EC50 values were determined using one-way ANOVA with p ≤ 0.05 (*) and p ≤ 0.01 (**) taken as significant. In all experiments, EC50 values were determined for each individual cell from a non-linear fit of dose response data to the logistic equation. An unweighted average ± standard error (SEM) was calculated from all individual EC50 values, without considering the fitting errors.
(§3) For time course analysis, a series of EC50 data was recorded from each cell. The first concentration-response curve, defined as t = 0, was recorded immediately after establishing the whole-cell configuration and positioning the cell in front of the delivery tube. […] Further recordings were made at t = 3 min, t = 6 min and t = 10 min (not attained with all cells). Time-independent recordings were taken at t = 0, and values of EC50 and Imax in the presence of PKA- or PKC modulators were normalized to control (no modulator). For time course analysis, responses were normalized to the control value at t = 0. Patch-clamp experiments were carried out on different dates and using different batches of HEK 293 cells. Since control EC50 values varied between different days of plating and between batches of cells, measurements with kinase modulators were always compared to control measurements recorded on the same day and from the same batch of cells.
On the technique in general: The patch-clamp technique gives a direct electrical read-out from membranes.

Series [1] deals with human heteromeric α1-β GlyRs. The series is described as follows: Whole-cell patch-clamp of glycine induced currents, modulators in the intracellular buffer, HEK293 cells expressing GlyR α1-β. As to conditions: for desensitization of glycine induced currents / effect on EC50 compared to control / Fraction of desensitizing cells / Imax: 0.5 μM modulator in intracellular buffer; for Fraction of desensitizing cells / Imax: mean ± SEM. The series is classed as cell-based. On the procedure:
as §1, §2, §3

The subject of a further series is GlyR α1-β. Kind of series: Receptor internalization assay (pre-labeled GlyRs, confocal microscopy) in HEK293 cells. As to conditions: 200 nM modulator, 15 min, 37°C; untreated cells 1.7 ± 0.4 dots/cell; ± SEM. Type of series: cell-based, human. On the procedure: To stain internalized GlyRs, GlyR α1 was cotransfected with GlyR β into HEK293 cells grown on glass cover slips. Internalization experiments were performed 24 h post-transfection. Live cells co-expressing GlyR α1-β receptors were labeled with the α1-specific monoclonal antibody Mab2b (1:500 in Earle’s minimal essential medium for 1 h at 4°C). Earle’s minimal essential medium was supplemented with 10% fetal calf serum, […] GlutaMAX, 100 mM sodium pyruvate, and 50 U/ml penicillin/streptomycin (Thermo Fisher Scientific, Waltham, MA, USA). Mab2b was purchased from Synaptic Systems, Göttingen, Germany. Following three washing steps in phosphate-buffered saline (PBS, pH 7.4), cells were incubated with goat-anti-mouse-Cy3 secondary antibody again for 1 h at 4°C (dilution of secondary antibody 1:500 in Earle’s minimal essential medium, Dianova, Hamburg Germany). Glass cover slips with pre-labeled GlyRs were transferred into a 24-well plate containing 500 μl of Earle’s minimal essential medium with PKA and PKC modulators (200 nM final concentration each; Forskolin, H-89, PMA, Staurosporine aglycon, all from Sigma-Aldrich Chemie GmbH, Munich, Germany). Cells were incubated with modulators for 15 min to allow receptor internalization. Time point zero (0 min) was taken as a negative internalization control to ensure health of HEK293 cells (pre-labeling of GlyRs at 4°C inhibits internalization). Following incubation with PKA and PKC modulators, cells were stained with a second secondary antibody (donkey-anti-goat-Dyelight488, 1:250 in Earle’s minimal essential medium, Dianova, Hamburg, Germany) for 30 min at 4°C to label receptor retained at the cellular surface. Cells were fixed with 4% paraformaldehyde, 4% sucrose in PBS for 15 min at 4°C, washed three times in PBS and stained with 4′,6-diamidino-2-phenylindole (DAPI, Thermo Fisher Scientific, Waltham, MA, USA) to label the cell nuclei for 5 min at 4°C (1:5000 in PBS). Coverslips were washed again with PBS and Aqua Dest and mounted on glass slides using mowiol.
The images were obtained using an inverted Olympus IX81 microscope equipped with an Olympus FV1000 confocal laser scanning system, a FVD10 SPD spectral detector and diode lasers of 495 nm (Alexa488) and 550 nm (Cy3; Olympus, Tokyo, Japan), and an Olympus UPLSAPO 60× (oil, numerical aperture: 1.35) objective. Adobe Photoshop (Adobe, San Jose, CA, USA) or ImageJ (1.51)/Fiji^1 were used for image analysis.

A further series has as its system GlyRs. Also on record: method as in Salceda and Aguirre-Ramirez, 2005. As to conditions: 10 μM Forskolin; ref Salceda and Aguirre-Ramirez, 2005; cited from earlier work.
In a further series the test system is Igly. Details: method as in Min et al., 1996. As to conditions: ref Min et al., 1996; cited from earlier work.
A further series has as its system nAChR. Details: method as in Wagoner and Pallotta, 1988. As to conditions: cAMP-independent; ref Wagoner and Pallotta, 1988; cited from earlier work.
A further series has as its system HEK293 cells. Kind of series: Tolerance of HEK293 cells to intracellular kinase modulators during patch-clamp. The conditions noted are these: intracellular concentration raised to 1 μM.
For series [2], the system named is glycine activated chloride currents. Also on record: method as in Ren et al., 1998. The conditions noted are these: added to the pipette solution; ref Ren et al., 1998; cited from earlier work.

Take `CCCCCCCCCCCCCC(=O)O[C@@H]1[C@@H](C)[C@@]2(O)[C@@H](C=C(CO)C[C@@]3(O)C(=O)C(C)=C[C@@H]23)[C@@H]2C(C)(C)[C@]12OC(C)=O` [4-alpha-PMA]: in the series on homomeric α1 GlyRs, the “effect on glycine currents” value is “did not affect the glycine currents”.
In the case of `C=C[C@@]1(C)CC(=O)[C@@H]2[C@@]3(C)CCCC(C)(C)[C@@H]3[C@H](O)[C@H](OC(C)=O)[C@@]2(C)O1` [1,9-dideoxy Forskolin], the “effect on desensitization of whole cell responses” value in the series with GlyR is “accelerates the desensitization effectively”.
As to `C=C[C@@]1(C)CC(=O)[C@]2(O)[C@@]3(C)[C@@H](O)CCC(C)(C)[C@@H]3[C@H](O)[C@H](OC(C)=O)[C@@]2(C)O1` [Forskolin], in the series on human homomeric α1 GlyRs, the “change of Imax at t = 10 min normalized to t = 0” value is reported as “significantly reduced” and the “effect on EC50” value is “increased EC50”. In the series with human homomeric α1 GlyRs (GlyR α1), the “desensitization of glycine induced currents” value is on record as “faster desensitization”, the “effect on EC50 compared to control” value is “significant increase”, the “Fraction of desensitizing cells” value worked out at 0.57 ± 0.12 and the Imax was 1.20 ± 0.24 nA. For the same compound, in series [1], the “desensitization of glycine induced currents” value was “faster desensitization”, the “effect on EC50 compared to control” value was “significant increase”, the “Fraction of desensitizing cells” value was found to be 0.52 ± 0.07 and the Imax came to 0.99 ± 0.24 nA. The compound further displayed an internalized receptor in the series with GlyR α1-β of 6.9 ± 1.5 dots/cell. The “reduction of specific binding of both radioligands” value in the series on GlyRs is on record as 30%–90%. The “effect on desensitization of whole cell responses” value with GlyR is on record as “markedly accelerates desensitization”. Also, the “effect on Igly” value with Igly is recorded as “inhibited Igly potentiation”. Also, in the series with nAChR, the “effect on desensitization of the nAChR” value is given as “enhancement of desensitization”.
For the compound `CCCCCCCCCCCCCC(=O)O[C@@H]1[C@@H](C)[C@@]2(O)[C@@H](C=C(CO)C[C@]3(O)C(=O)C(C)=C[C@@H]23)[C@@H]2C(C)(C)[C@]12OC(C)=O` [4-beta-PMA], the “effect on glycine currents” value in the series on homomeric α1 GlyRs is on record as “Reduced responses”.
As to `O=C1NCc2c1c1c3ccccc3[nH]c1c1[nH]c3ccccc3c21` [Staurosporine aglycon], in the series on human homomeric α1 GlyRs, the “change of Imax at t = 10 min normalized to t = 0” value is listed as “not significant” and the “effect on EC50” value is “opposite effect”. Also, in the series on human homomeric α1 GlyRs (GlyR α1), the “desensitization of glycine induced currents” value was “slow or no desensitization”, the “effect on EC50 compared to control” value is on record as “decrease of half maximum values”, the “Fraction of desensitizing cells” value was determined as 0.10 ± 0.05 and the Imax came to 1.70 ± 0.29 nA. Moreover, in series [1], the “desensitization of glycine induced currents” value was “slow or no desensitization”, the “effect on EC50 compared to control” value is listed as “decrease of half maximum values”, the “Fraction of desensitizing cells” value is recorded as 0.06 ± 0.04 and the Imax came out at 1.11 ± 0.20 nA. This compound also gave an internalized receptor in the series on GlyR α1-β of 2.3 ± 0.5 dots/cell. Further, the “effect of 4-beta-PMA in the presence of Staurosporine aglycon” value with homomeric α1 GlyRs is “the effect was inhibited”. Moreover, in the series on HEK293 cells, the cell survival result is “cells did not survive”.
On to `O=S(=O)(NCCNC/C=C/c1ccc(Br)cc1)c1cccc2cnccc12` [H-89], for which, in the series on human homomeric α1 GlyRs, the “change of Imax at t = 10 min normalized to t = 0” value is reported as “not significant” and the “effect on EC50” value is given as “opposite effect”. In the series on human homomeric α1 GlyRs (GlyR α1), the “desensitization of glycine induced currents” value is recorded as “non-desensitizing current responses”, the “effect on EC50 compared to control” value is “decreased EC50 values”, the “Fraction of desensitizing cells” value is given as 0.07 ± 0.03 and the Imax is recorded as 1.91 ± 0.57 nA. For the same compound, in series [1], the “desensitization of glycine induced currents” value is “non-desensitizing current responses”, the “effect on EC50 compared to control” value is listed as “decreased EC50 values”, the “Fraction of desensitizing cells” value came to 0.19 ± 0.09 and the Imax came out at 1.37 ± 0.28 nA. In the series with GlyR α1-β, this compound gave an internalized receptor of 4.0 ± 1.0 dots/cell. The “effect on Igly” value in the series with Igly is recorded as “potentiation of Igly”. Besides, the “effect on ATP induced run-up of the glycine current” value in series [2] is reported as “blocked”.
Turning to `NCC(=O)O` [glycine], the EC50 in the series on human homomeric α1 GlyRs (GlyR α1, absence of modulators, n = 11) was 37.4 ± 3.7 µM; in series [1] (absence of modulators, n = 8), 45.4 ± 6 µM.
